Patent publication US20080026996A1, “Selective Vpac2 Receptor Reptide Agonists” (ELI LILLY AND COMPANY, priority 2004, published 2008)
Read-outs that look alike come from different tables or passages of the source. Where no end group is shown, it is not given here. [ ]: non-standard residue; d: D form. The star is where a group is joined. Hexanoyl = CCCCCC(=O)*; Aib = CC(C)(N)C(=O)O

How the values were obtained:
[1] = Rat serum stability studies (remaining active peptide by DiscoveRx cAMP on CHO-VPAC2 cells); type: in vitro ADME
Protocol: Store the aliquot with aprotinin at 4° C. Store the aliquot without aprotinin at 37° C. […] […] Incubate in room temperature for 30 minutes. Remove the supernatant. […] Incubate on the shaker (300 rpm) for 1 hour. Proceed as normal with the DiscoveRx kit. Include cAMP standards in column 12. Determine EC50 values from the cAMP assay data.

human VPAC2 [2] = molecular target: T1, human VPAC2 (Homo sapiens, UniProt P41587); assay: Filter binding assay, membranes of stable VPAC2 cell line, 125I-labeled VIP tracer (Table 2)
T1 construct: expressed in transfected cells
T1 sequence (P41587 24-438): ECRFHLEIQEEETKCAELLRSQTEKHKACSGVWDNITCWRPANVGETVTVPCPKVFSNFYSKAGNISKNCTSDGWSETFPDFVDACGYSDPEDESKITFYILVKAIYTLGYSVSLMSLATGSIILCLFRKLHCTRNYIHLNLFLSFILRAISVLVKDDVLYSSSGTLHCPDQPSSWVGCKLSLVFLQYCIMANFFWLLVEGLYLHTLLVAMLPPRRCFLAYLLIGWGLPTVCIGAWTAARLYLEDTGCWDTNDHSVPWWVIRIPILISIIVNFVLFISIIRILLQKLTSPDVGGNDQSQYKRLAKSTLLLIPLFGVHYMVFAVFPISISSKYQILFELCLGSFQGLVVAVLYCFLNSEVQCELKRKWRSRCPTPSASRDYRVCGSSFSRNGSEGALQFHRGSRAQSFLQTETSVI
In short: (§1)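 Competition binding of agonists against radiotracer on receptor membranes (2.5 μg) in 25 mM HEPES pH 7.4 with 0.5% protease-free BSA, about 40000 cpm tracer, 1 hour with shaking. Bound tracer was separated by filtration on PEI-presoaked, BSA-blocked glass-fibre filters, washed and counted by scintillation.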

human VPAC2 [3] = molecular target: T1, human VPAC2; assay: Alpha screen cAMP in vitro potency, human VPAC2 receptor; type: cell-based
In short: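 Stimulated cAMP accumulation is read by AlphaScreen after 60 min exposure of 50,000 non-enzymatically harvested cells to compound, followed by lysis with donor beads.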

human VPAC1 = molecular target: T2, human VPAC1 (Homo sapiens, UniProt P32241); assay: Filter binding assay, membranes of cells transiently transfected with human VPAC1, 125I-labeled VIP tracer (Table 2); set-up: expressed in transfected cells
T2 sequence (P32241 31-457): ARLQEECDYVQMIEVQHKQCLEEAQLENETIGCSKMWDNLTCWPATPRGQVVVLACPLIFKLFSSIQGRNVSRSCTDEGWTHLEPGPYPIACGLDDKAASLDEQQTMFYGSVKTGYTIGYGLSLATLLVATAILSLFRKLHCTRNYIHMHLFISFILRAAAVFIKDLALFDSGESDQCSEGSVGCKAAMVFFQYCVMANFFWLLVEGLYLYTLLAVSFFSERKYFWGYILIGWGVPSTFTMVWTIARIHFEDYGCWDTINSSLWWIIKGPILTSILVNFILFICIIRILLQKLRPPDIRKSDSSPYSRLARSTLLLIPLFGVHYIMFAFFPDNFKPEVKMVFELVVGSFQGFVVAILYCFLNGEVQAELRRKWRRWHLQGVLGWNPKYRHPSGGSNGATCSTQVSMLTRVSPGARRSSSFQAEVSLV
In short: as §1

human PAC1 = molecular target: T3, human PAC1 (Homo sapiens, UniProt P41586); assay: Filter binding assay, membranes of cells transiently transfected with human PAC1, 125I-labeled PACAP-27 tracer (Table 2); set-up: expressed in transfected cells
T3 sequence (P41586 21-468): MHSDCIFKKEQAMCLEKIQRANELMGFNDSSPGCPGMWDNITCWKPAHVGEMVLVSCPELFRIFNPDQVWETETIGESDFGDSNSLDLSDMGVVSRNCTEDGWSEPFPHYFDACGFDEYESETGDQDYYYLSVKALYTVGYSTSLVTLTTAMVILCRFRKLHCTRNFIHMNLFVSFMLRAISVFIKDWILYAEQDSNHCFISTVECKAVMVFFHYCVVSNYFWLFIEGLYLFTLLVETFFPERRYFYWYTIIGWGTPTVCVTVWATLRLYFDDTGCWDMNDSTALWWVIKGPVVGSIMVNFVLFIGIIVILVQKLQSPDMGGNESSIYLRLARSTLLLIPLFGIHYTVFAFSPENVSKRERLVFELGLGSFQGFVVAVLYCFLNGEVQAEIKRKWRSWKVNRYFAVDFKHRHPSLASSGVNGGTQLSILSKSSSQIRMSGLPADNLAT
In short: as §1

[4] = read-out: Human VPAC2 Receptor Binding
[5] = cAMP generation, single result from two analyses performed in a single run, read-out: Human VPAC2 Receptor: Alpha Screen EC50
[6] = read-out: Human VPAC1 Receptor Binding
[7] = read-out: Human PAC1 Receptor Binding

## CCCCCC(=O)N[C@@H](Cc1c[nH]cn1)C(=O)N[C@@H](CO)C(=O)N[C@@H](CC(=O)O)C(=O)N[C@@H](C)C(=O)N[C@H](C(=O)N[C@@H](Cc1ccccc1)C(=O)N[C@H](C(=O)N[C@@H](CC(=O)O)C(=O)N[C@@H](CC(N)=O)C(=O)N[C@@H](Cc1ccc(O)cc1)C(=O)N[C@H](C(=O)N[C@@H](CCCNC(=N)N)C(=O)N[C@@H](CC(C)C)C(=O)N[C@@H](CCCNC(=N)N)C(=O)NC(C)(C)C(=O)N[C@@H](CCC(N)=O)C(=O)N[C@H](C(=O)N[C@@H](C)C(=O)N[C@@H](C)C(=O)NC(C)(C)C(=O)N[C@@H](CCCCN)C(=O)N[C@@H](Cc1ccc(O)cc1)C(=O)N[C@@H](CC(C)C)C(=O)N[C@@H](CCC(N)=O)C(=O)N[C@@H](CO)C(=O)N[C@H](C(=O)N[C@@H](CCCN)C(=O)N[C@@H](CCC(N)=O)C(=O)N[C@@H](CCCN)C(=O)NCC(=O)NCC(=O)N1CCC[C@H]1C(=O)N[C@@H](CO)C(=O)N[C@@H](CO)C(=O)NCC(=O)N[C@@H](C)C(=O)N1CCC[C@H]1C(=O)N1CCC[C@H]1C(=O)N1CCC[C@H]1C(=O)N[C@@H](CO)C(=O)O)[C@@H](C)CC)C(C)C)[C@@H](C)O)[C@@H](C)O)C(C)C [Agonist P356]
[1]
  Rat Serum Stability (estimated purity in % after 18 hours): 45.17%

## Hexanoyl-HSDAVFTDNYTRLRKQVAAKKYLQSLKNKRYGGPSSGAPPPS [Agonist P107]
Human VPAC2 [2]; [4]
  IC50: 0.16 nM
Human VPAC2 [3]; [5]
  EC50: 0.12 nM
Human VPAC1; [6]
  IC50: 122 nM
Human PAC1; [7]
  IC50: 225 nM

## Hexanoyl-HSDAVFTDNYTRLRKQVAAKKYLQSTKNKRYGGPSSGAPPPS [Agonist P108]
Human VPAC2 [2]; [4]
  IC50: 0.45 nM
Human VPAC2 [3]; [5]
  EC50: 0.27 nM
Human VPAC1; [6]
  IC50: 332 nM
Human PAC1; [7]
  IC50: 486 nM

## Hexanoyl-HSDAVFTDNYTRLRKQVAAKKYLQSVKNKRYGGPSSGAPPPS [Agonist P109]
Human VPAC2 [2]; [4]
  IC50: 0.11 nM
Human VPAC2 [3]; [5]
  EC50: 0.22 nM
Human VPAC1; [6]
  IC50: 274 nM
Human PAC1; [7]
  IC50: 257 nM

## Hexanoyl-HSDAVFTDNYTRLRKQVAAKKYLQSWKNKRYGGPSSGAPPPS [Agonist P110]
Human VPAC2 [2]; [4]
  IC50: 0.1 nM
Human VPAC2 [3]; [5]
  EC50: 0.13 nM
Human VPAC1; [6]
  IC50: 425 nM
Human PAC1; [7]
  IC50: 321 nM

## Hexanoyl-HSDAVFTDNYTRLRKQVAAKKYLQSYKNKRYGGPSSGAPPPS [Agonist P111]
Human VPAC2 [2]; [4]
  IC50: 0.19 nM
Human VPAC2 [3]; [5]
  EC50: 0.34 nM
Human VPAC1; [6]
  IC50: 300 nM
Human PAC1; [7]
  IC50: 258 nM

## Hexanoyl-HSDAVFTDNYTRLRKQVAAKKYLQS[Aib]KNKRYGGPSSGAPPPS [Agonist P188]
Human VPAC2 [2]; [4]
  IC50: 0.29 nM
Human VPAC2 [3]; [5]
  EC50: 0.32 nM
Human VPAC1; [6]
  IC50: 6.19 nM
Human PAC1; [7]
  IC50: 700 nM

## Hexanoyl-HSDAVFTDNYTRLRKQVAAKKYLQTIKNKRYGGPSSGAPPPS [Agonist P115]
Human VPAC2 [2]; [4]
  IC50: 0.1 nM
Human VPAC2 [3]; [5]
  EC50: 0.2 nM
Human VPAC1; [6]
  IC50: 267 nM
Human PAC1; [7]
  IC50: 190 nM

## Hexanoyl-HSDAVFTDNYTRLRKQVAAKKYLQVIKNKRYGGPSSGAPPPS [Agonist P116]
Human VPAC2 [2]; [4]
  IC50: 0.74 nM
Human VPAC2 [3]; [5]
  EC50: 0.12 nM
Human VPAC1; [6]
  IC50: 369 nM
Human PAC1; [7]
  IC50: 145 nM

## Hexanoyl-HSDAVFTDNYTRLRKQVAAKKYLQWIKNKRYGGPSSGAPPPS [Agonist P117]
Human VPAC2 [2]; [4]
  IC50: 0.51 nM
Human VPAC2 [3]; [5]
  EC50: 0.2 nM
Human VPAC1; [6]
  IC50: 442 nM
Human PAC1; [7]
  IC50: 243 nM

## Hexanoyl-HSDAVFTDNYTRLRKQVAAKKYLQYIKNKRYGGPSSGAPPPS [Agonist P127]
Human VPAC2 [2]; [4]
  IC50: 0.23 nM
Human VPAC2 [3]; [5]
  EC50: 0.22 nM
Human VPAC1; [6]
  IC50: 290 nM
Human PAC1; [7]
  IC50: 209 nM

## Hexanoyl-HSDAVFTDNYTRLRKQVAAKKYLQ[Aib]IKNKRYGGPSSGAPPPS [Agonist P187]
Human VPAC2 [2]; [4]
  IC50: 0.17 nM
Human VPAC2 [3]; [5]
  EC50: 0.4 nM
Human VPAC1; [6]
  IC50: 134 nM
Human PAC1; [7]
  IC50: 296 nM

## Hexanoyl-HSDAVFTDNYTRLRKQVAAKK[Aib]LQSIKNKRYGGPSSGAPPPS [Agonist P228]
[1]
  Rat Serum Stability (estimated purity in % after 18 hours): <5.00%

## Hexanoyl-HSDAVFTDNYTRLRKQVAGKKYLQSIKNKRYGGPSSGAPPPS [Agonist P275]
Human VPAC2 [2]; [4]
  IC50: 0.38 nM
Human VPAC2 [3]; [5]
  EC50: 0.32 nM
Human VPAC1; [6]
  IC50: 558 nM
Human PAC1; [7]
  IC50: 630 nM

## Hexanoyl-HSDAVFTDNYTRLRRQVAARRYLQSIRNRRYGGPSSGAPPPS [Agonist P98]
Human VPAC2 [2]; [4]
  IC50: 0.17 nM
Human VPAC2 [3]; [5]
  EC50: 0.15 nM
Human VPAC1; [6]
  IC50: 69 nM
Human PAC1; [7]
  IC50: 96.3 nM

## Hexanoyl-HSDAVFTDNYTRL[Aib]KQVAAKQYLQSIKNKRYGGPSSGAPPPS [Agonist P249]
[1]
  Rat Serum Stability (estimated purity in % after 18 hours): 12.9%

## Hexanoyl-HSDAVFTDNYT[Aib]LR[Aib]QVAA[Aib]KYLQSIKNKRYGGPSSGAPPPS [Agonist P345]
Human VPAC2 [2]; [4]
  IC50: 19.3 nM
Human VPAC1; [6]
  IC50: > 3000 nM
[1]
  Rat Serum Stability (estimated purity in % after 18 hours): 20.23%

## Hexanoyl-HSDAVFTDQYTRLLAKLALQKYLQSIKQKRYGGPSSGAPPPS [Agonist P192]
Human VPAC2 [2]; [4]
  IC50: 0.53 nM
Human VPAC2 [3]; [5]
  EC50: 0.18 nM
Human VPAC1; [6]
  IC50: 1430 nM
Human PAC1; [7]
  IC50: 14300 nM

## Hexanoyl-HSDA[dV]FTDNYTRLRKQVAAKKYLQSIKNKRYGGPSSGAPPPS [Agonist P210]
Human VPAC2 [2]; [4]
  IC50: 0.68 nM
Human VPAC1; [6]
  IC50: 395 nM
[1]
  Rat Serum Stability (estimated purity in % after 18 hours): <0.91%

## Hexanoyl-HSDIVFTDNYTRLRKQVAAKKYLQSIKNKRYGGPSSGAPPPS [Agonist P221]
[1]
  Rat Serum Stability (estimated purity in % after 18 hours): 0.87%

## Hexanoyl-HSDLVFTDNYTRLRKQVAAKKYLQSIKNKRYGGPSSGAPPPS [Agonist P223]
[1]
  Rat Serum Stability (estimated purity in % after 18 hours): 1.52%

## Hexanoyl-HSEAVFTDNYTRLRKQVAAKKYLQSIKNKRYGGPSSGAPPPS [Agonist P224]
Human VPAC2 [2]; [4]
  IC50: 0.35 nM
Human VPAC2 [3]; [5]
  EC50: 0.14 nM
Human VPAC1; [6]
  IC50: 208 nM
Human PAC1; [7]
  IC50: 210 nM

## Hexanoyl-H[Aib]DAVFTDNYTRLRKQVAAKKYLQSIKNKRYGGPSSGAPPPS [Agonist P166]
Human VPAC2 [2]; [4]
  IC50: 0.46 nM
Human VPAC2 [3]; [5]
  EC50: 0.15 nM
Human VPAC1; [6]
  IC50: 248 nM
Human PAC1; [7]
  IC50: 127 nM

## Hexanoyl-H[dA]DAVFTDNYTRLRKQVAAKKYLQSIKNKRYGGPSSGAPPPS [Agonist P101]
Human VPAC2 [2]; [4]
  IC50: 0.18 nM
Human VPAC2 [3]; [5]
  EC50: 0.21 nM
Human VPAC1; [6]
  IC50: 93.6 nM
Human PAC1; [7]
  IC50: 274 nM

## MHSDAVFTDNYTRLLAKLALQKYLQSIKNKRYGGPSSGAPPPS [Agonist P140]
Human VPAC2 [2]
  IC50: 1.94 nM
Human VPAC2 [3]
  EC50: 0.07 nM
Human VPAC1
  IC50: 1140 nM
Human PAC1
  IC50: 485 nM
